The subject of assay [1] is MOLT-4. As to the kind of experiment: CellTiter-Glo luminescent cell viability assay (ATP quantification), MOLT-4. The note with it: acute lymfoblastic leukemia cells, 72 h treatment, viable cells by ATP luminescence. The format is cell-based. On the procedure:
(§1) Influence of the test compounds on viability (proliferation) of cell lines used was investigated in concentration range 0-100 μmol·l^−1.
Suspension cell line MOLT-4 is a permanent in vitro culture of acute lymfoblastic leukemia. Linie MOLT-4 cell line was cultivated in RPMI 1640 medium (Sigma-Aldrich, see above) with addition of 2 mmol glutamine (Invitrogen, see above), 10% fetal bovine serum (FBS, Sigma-Aldrich, see above), 100 IU/ml peniciline, 100 μg/ml streptomycine (Sigma-Aldrich, see above). Passaging was performed 2-3× a week. Population doubling time of […] cell line was 25 h under the cultivation conditions used.
(§2) In order to test the sensitivity of the cell lines towards the studied helquats, cytotoxity test for cell viability assessment based on ATP quantification in cell lysates was used (CellTiter-Glo® Luminescent Cell Viability Assay, Promega, cat. no. G7571). In this test, ATP in cell lysates is detected using luciferase reaction. Luminescence intensity correlates with the ATP level and thus with quantity of metabolically active (viable) cells. IC50 value serves as the output, that is the concentration of the test compound which leads to 50% reduction in number of viable cells as compared to control, untreated population. To this end, IC50 value reflects efficiency of the test compound with regard to the given cell line.
(§3) Cells in the exponential growth phase were seeded into a 96-well microtiter plate were plated at 3000 cells per well. Each well contained 90 μl of cell suspension. The next day, 10 μl of 10× concentrated test compound solutions were added. The effect of helquats was investigated in concentration range 1 to 100 μmol·l^−1 (e.g. 1; 2.5; 5; 7.5; 10; 15; 25; 50 and 100 μmol·l^−1). Apart from the section containing the concentration series of the test compound, each well contained 2 control columns, the first with pure medium (so called blank) and the second with cells in medium without the test compounds (control). Into wells containing controls and blanks, volume of solvent (water) equal to the volume of added compound solutions was added. After 72 h of incubation with the test compounds viability was determined according to the manufacturer's instructions. In short: microtiter well plate was left 30 min to reach the room temperature after it has been removed from the incubator. Then, into each well, 100 μl of the prepared detection agent was added. Next, the well plate was shaken for 2 min to complete the full lysis. Next, after the well had been left in the dark for 15 min, the luminescence was measured in each well using luminometer (Tecan Genios, Austria).
(§4) IC50 value represents concentration of the test compound, which leads to 50% reduction of viable cells (inhibition of cell growth) after 72 h of the treatment. Each helquat concentration was tested in triplicates in a IC50 quantification and at least 3 independent IC50 quantification experiments were performed. IC50 values over 100 μmol·l^−1 were obtained by extrapolation of data measured in concentration range 0-100 μmol·l^−1 for the given helquat.
A general note: ATP-based viability assays read luminescence as a measure of living cells.

For assay [2], the system named is CCRF-CEM. Briefly: CellTiter-Glo luminescent cell viability assay (ATP quantification), CCRF-CEM. The note with it: acute lymphoblastic leukemia cells, 72 h treatment, viable cells by ATP luminescence. The format is cell-based. On the procedure:
as §1
Suspension cell line CCRF-CEM is a permanent in vitro culture of acute lymphoblastic leukemia. CCRF-CEM cell line was cultivated in RPMI 1640 medium (Sigma-Aldrich, cat. no. R8758) with addition of 2 mmol·l^−1 glutamine (Invitrogen, cat. no. 35050-038), 10% fetal bovine serum (FBS, Sigma-Aldrich, cat. no. F9665), 100 IU/ml peniciline, 100 μg/ml streptomycine (Sigma-Aldrich, cat. no. P0781). Passaging was performed 2-3× a week. Population doubling time of CCRF-CEM cell line was 20 h under the cultivation conditions used.
as §2, §3, §4

Assay [3] deals with HeLa. Briefly: CellTiter-Glo luminescent cell viability assay (ATP quantification), HeLa. The format is cell-based. The note with it: cervical cancer cells, 72 h treatment, viable cells by ATP luminescence. On the procedure: as §1
Adherent cell line HeLa is a permanent in vitro culture derived from cervical cancer. HeLa cell line was cultivated in RPMI 1640 medium (Dutch modification) (Sigma-Aldrich, cat. no. R7638) with addition of 2 mmol·l^−1 glutamine (Invitrogen, see above), 10% fetal bovine serum (FBS, Sigma-Aldrich, see above), 100 IU/ml peniciline, 100 μg/ml streptomycine (Sigma-Aldrich, see above). Passaging was performed twice a week. After washing of cells with sterile PBS the cells were released by 0.25% trypsin/EDTA (Sigma-Aldrich, cat. no. T4049) at 37° C. for 2 minutes. The trypsin was inactivated by addition of 2 volumes of complete medium, cells were then centrifuged (250×g, 5 min), the cell pellet was resuspended, and transferred in the amount needed into a new cultivation bottle with fresh medium. Population doubling time of […] cell line was 25 h under the cultivation conditions used.
as §2, §3, §4

The subject of assay [4] is NHDF-Ad. As to the kind of experiment: CellTiter-Glo luminescent cell viability assay (ATP quantification), NHDF-Ad normal cells. It is filed as cell-based. The note with it: normal human dermal fibroblasts, 72 h treatment.
Text: as §1
Normal human dermal fibroblasts were cultivated without antibiotics in basal medium for fibroblasts (ATCC/LGC Standards, cat. no. PCS-201-030) with added “Fibroblast Growth Kit-Low serum” (ATCC/LGC Standards, cat. no. PCS-201-041) containing 2% FBS, L-glutamine, hydrocortisone, ascorbic acid, rh FGF beta, rh insulin. When 90% confluency was reached the fibroblasts were washed with sterile PBS (5 ml) and dissociated by addition of 0.25% solution of trypsin/EDTA (2 ml; 2 min; 37° C.). After that 5 ml of cultivation medium for fibroblasts was added and the cells were centrifuged (180×g, 7 min), the cell pellet was resuspended, and transferred in the amount needed into a new cultivation bottle with fresh medium. The same cell release procedure was applied when the cells were to be used in experiments. The cells were used in experiments between the 3rd and the 15th passage after defreeezing. Population doubling time of NHDF-Ad cell line was 33 h under the cultivation conditions used.
as §2, §3, §4

For assay [5], the system named is LoVo. Briefly: CellTiter-Glo luminescent cell viability assay (ATP quantification), LoVo. It is filed as cell-based. Particulars: Homo sapiens, LoVo, colorectal carcinoma cells, 72 h treatment. The procedure: as §1
Adherent cell line LoVo is a permanent in vitro culture derived from tissue of a patient with colorectal carcinoma. LoVo cell line was cultivated in DMEM medium (Sigma-Aldrich, cat. no. D8437) with addition of 2 mmol·l^−1 glutamine (Invitrogen, see above), 10% fetal bovine serum (FBS, Sigma-Aldrich, see above), 100 IU/ml peniciline, 100 μg/ml streptomycine (Sigma-Aldrich, see above). Passaging was performed twice a week. After washing of cells with sterile PBS, the cells were released by 0.25% trypsin/EDTA (Sigma-Aldrich, see above) at 37° C. for 2 minutes. The trypsin was inactivated by addition of 2 volumes of complete medium, cells were then centrifuged (250×g, 5 min), resuspended, and transferred in the amount needed into a new cultivation bottle with fresh medium. Population doubling time of LoVo cell line was 39 h under the cultivation conditions used.
as §2, §3, §4

In assay [6] the test system is HUVEC. Briefly: CellTiter-Glo luminescent cell viability assay (ATP quantification), HUVEC normal cells. It is filed as cell-based, human. The note with it: 72 h treatment. The procedure: as §1
Normal human endothelial cells from umbilical vein are adherent cells cultivated in plastic Petri dishes coated with collagen I. Into the cultivation medium (E-STIM™; BD Biosciences, cat. co. 355054) already containing 2% FBS (fetal bovine serum), hydrocortisone and heparin the following two further ingredients were added: epidermal growth factor (EGF, 5 μg) and mixture of factors facilitating growth of endothelial cells (ECGS, 100 mg). […] The cells were passaged after reaching 90% confluency by dissociation using 0.25% solution of trypsin/EDTA (1 ml; 3 min; 37° C.). After that 5 ml of complete cultivation medium E-STIM™ was added and the cells were centrifuged (180×g, 7 min), the pellet was resuspended, and transferred in the amount needed into a new Petri dish with fresh medium. The cells were used in experiments between the 3rd and the 8th passage after defreezing. Population doubling time of HUVEC cell line was 38 h under the cultivation conditions used.
as §2, §3, §4

Where [7] appears, read: Fibroblast, viable cells by ATP luminescence, class symbols.
The mark [8] stands for this setting: viable cells by ATP luminescence, class symbols.
[9] abbreviates: HUVEC, normal human endothelial cells from umbilical vein, viable cells by ATP luminescence, class symbols.
The mark [10] stands for this setting: HUVEC, normal human endothelial cells, numeric bound, values over 100 obtained by extrapolation of data measured at 0-100 μmol·l−1.
Where [11] appears, read: Fibroblast, numeric bound, values over 100 obtained by extrapolation of data measured at 0-100 μmol·l−1.
[12] abbreviates: numeric bound, values over 100 obtained by extrapolation of data measured at 0-100 μmol·l−1.

By IC50 is commonly meant the concentration that inhibits the measured activity by half.

As for `CN(C)c1ccc(/C=C/c2cccc3[n+]2CCCc2ccc4c(c2-3)-c2cccc(/C=C/c3ccc(N(C)C)cc3)[n+]2CCC4)cc1` (racemic) [(rac)-41, (rac)-4,15-bis((E)-4-(dimethylamino)styryl)-6,7,8,11,12,13-hexahydro-dipyrido[1,2-a:1′,2′-a′]benzo[2,1-c:3,4-c′]bisazepinediium trifluoromethanesulfonate], the IC50 lay within 11 to 50 µM in assay [1] (Homo sapiens, MOLT-4); 11 to 50 µM in assay [2] (Homo sapiens, CCRF-CEM); 11 to 50 µM in assay [3] (Homo sapiens, HeLa); 51 to 150 µM in assay [4] (setting [7]); 11 to 50 µM in assay [5] (setting [8]); 51 to 150 µM in assay [6] (setting [9]).

`C(=C\c1cc[n+]2c(c1)-c1c(ccc3c1-c1c4ccccc4cc[n+]1CC3)CC2)/c1cc2c3c(c1)CCCN3CCC2` (racemic) [(rac)-20, (rac)-(E)-13-(2-(1,2,3,5,6,7-hexahydropyrido[3,2,1-ij]quinolin-9-yl)vinyl)-4,5,8,9-tetrahydroisoquinolino[2,1-k]pyrido[2,1-a][2,9]phenanthroline-3,10-diium trifluoromethanesulfonate]: the IC50 lay in the range of 11 to 50 µM in assay [1] (Homo sapiens, MOLT-4); 11 to 50 µM in assay [2] (Homo sapiens, CCRF-CEM); 11 to 50 µM in assay [3] (Homo sapiens, HeLa); 51 to 150 µM in assay [4] (setting [7]); 51 to 150 µM in assay [5] (setting [8]); 51 to 150 µM in assay [6] (setting [9]).

For `Cc1c(C)c2c(c3c1CC[n+]1ccc(/C=C/c4ccc(N(C)C)cc4)cc1-3)-c1c3ccccc3cc[n+]1CC2` [(P)-1, (P)-(E)-13-(4-(dimethylamino)styryl)-6,7-dimethyl-4,5,8,9-tetrahydroiso-quinolino[1,2-a]pyrido[1,2-k][2,9]phenanthroline-3,10-diium trifluoromethanesulfonate], the IC50 is 11 to 50 µM in assay [1]; 11 to 50 µM in assay [2]; 11 to 50 µM in assay [3]; 51 to 150 µM in assay [4] (setting [8]); over 150 µM in assay [6] (normal human endothelial cells, numeric bound, values over 100 obtained by extrapolation of data measured at 0-100 μmol·l−1).

With `Cc1c(C)c2c(c3c1CC[n+]1ccc(/C=C/c4ccc(N(C)C)cc4)cc1-3)-c1c3ccccc3cc[n+]1CC2` (racemic) [(rac)-1, (rac)-(E)-13-(4-(dimethylamino)styryl)-6,7-dimethyl-4,5,8,9-tetrahydroiso-quinolino[1,2-a]pyrido[1,2-k][2,9]phenanthroline-3,10-diium trifluoromethanesulfonate], the 50% inhibitory concentration (IC50) in assay [1] (Homo sapiens, MOLT-4) was 11 to 50 µM; in assay [2] (Homo sapiens, CCRF-CEM), 11 to 50 µM; in assay [3] (Homo sapiens, HeLa), 11 to 50 µM; in assay [4] (setting [7]), 51 to 150 µM; in assay [6] (setting [10]), over 150 µM.

For `CN(C)c1ccc(/C=C/c2cc[n+]3c(c2)-c2c(ccc4c2-c2cccc[n+]2CCC4)CCC3)cc1` (racemic) [(rac)-35, (rac)-(E)-2-(4-(dimethylamino)styryl)-6,7,8,11,12,13-hexahydrodipyrido[1,2-a:1′,2′-a′]benzo[2,1-c:3,4-c′]bisazepinediium trifluoromethanesulfonate], the IC50 in assay [1] (Homo sapiens, MOLT-4) is 51 to 150 µM; in assay [2] (Homo sapiens, CCRF-CEM), 51 to 150 µM; in assay [3] (Homo sapiens, HeLa), 51 to 150 µM; in assay [4] (setting [11]), over 150 µM; in assay [5] (setting [12]), over 150 µM; in assay [6] (setting [10]) it was over 150 µM.

As to `CN(C)c1ccc(/C=C/C=C/c2cc[n+]3c(c2)-c2c(ccc4c2-c2cccc[n+]2CC4)CC3)cc1` [compound 30, 2-((1E,3E)-4-(4-(dimethylamino)phenyl)buta-1,3-dien-1-yl)-6,7,10,11-tetrahydrodipyrido[2,1-a:1′,2′-k][2,9]phenanthroline-5,12-diium trifluoromethanesulfonate], the IC50 in assay [1] (Homo sapiens, MOLT-4) is 51 to 150 µM; in assay [2] (Homo sapiens, CCRF-CEM), 51 to 150 µM; in assay [3] (Homo sapiens, HeLa), 51 to 150 µM; in assay [4] (setting [11]) it was over 150 µM; in assay [5] (setting [12]) it was over 150 µM; in assay [6] (setting [10]) it was over 150 µM.

(Values after patent US9340543B2, “Helquat derivatives, preparation thereof, and use thereof as medicaments” (USTAV ORGANICKE CHEMIE A BIOCHEMIE AKADEMIE VED CR, V.V.I., priority 2013, dated 2016).)
